Test results taken from the NIST ThermoML archive (doi:10.1021/je5002686).
Where “and” joins values, the source holds several entries; their conditions need not be identical. Equal entries are not always repeated.

Conditions: Liquid, Vibrating tube method

CCOC(F)(C(F)(F)C(F)(F)C(F)(F)F)C(F)(C(F)(F)F)C(F)(F)F (configuration not stated) [2-trifluoromethyl-3-ethoxydodecafluorohexane]
mass density
Conditions | 270 K | 290 K | 310 K
490 kPa | 1678.1 kg/m3 | 1637.9 kg/m3 | 1597.2 kg/m3
500 kPa | 1678.3 kg/m3 | 1638.1 kg/m3 and 1638.2 kg/m3 | 1597.2 kg/m3 and 1597.5 kg/m3
990 kPa | 1679.2 kg/m3 and 1679.3 kg/m3 | 1639.4 kg/m3 and 1639.5 kg/m3 | 1598.7 kg/m3
1000 kPa | 1679.2 kg/m3 | 1639.2 kg/m3 | 1598.7 kg/m3 and 1599 kg/m3
1990 kPa | 1681.3 kg/m3 | 1641.9 kg/m3 | –
2000 kPa | 1681.5 kg/m3 | 1641.7 kg/m3 and 1642 kg/m3 | 1601.6 kg/m3 and 1601.9 kg/m3
2990 kPa | – | 1644.4 kg/m3 | 1604.8 kg/m3
3000 kPa | 1683.4 kg/m3 | 1644.3 kg/m3 and 1644.1 kg/m3 | 1604.5 kg/m3 and 1604.4 kg/m3
3010 kPa | 1683.6 kg/m3 | – | –
3990 kPa | 1685.5 kg/m3 | 1646.7 kg/m3 and 1646.5 kg/m3 | 1607.3 kg/m3
4000 kPa | 1685.6 kg/m3 | 1646.8 kg/m3 | 1607.2 kg/m3 and 1607.6 kg/m3
4990 kPa | 1687.5 kg/m3 | 1649.1 kg/m3 | 1609.9 kg/m3
5000 kPa | 1687.7 kg/m3 and 1687.5 kg/m3 | 1648.9 kg/m3 and 1649.2 kg/m3 | –
9990 kPa | 1697.3 kg/m3 | 1660.3 kg/m3 and 1660.1 kg/m3 and 1660.4 kg/m3 | –
10000 kPa | 1697.3 kg/m3 and 1697.4 kg/m3 | – | –
14990 kPa | 1706.5 kg/m3 | – | –
15000 kPa | 1706.5 kg/m3 and 1706.6 kg/m3 | 1670.8 kg/m3 and 1670.6 kg/m3 | –
19990 kPa | – | 1680.5 kg/m3 and 1680.3 kg/m3 | –
20000 kPa | 1715.1 kg/m3 and 1715.2 kg/m3 | 1680.6 kg/m3 | –
24990 kPa | 1723.4 kg/m3 | – | –
25000 kPa | 1723.3 kg/m3 and 1723.5 kg/m3 | 1689.7 kg/m3 and 1689.5 kg/m3 | –
29990 kPa | 1731.3 kg/m3 | – | –
30000 kPa | 1731.1 kg/m3 and 1731.2 kg/m3 | 1698.4 kg/m3 | –
30010 kPa | – | 1698.3 kg/m3 | –
34990 kPa | 1738.7 kg/m3 | 1706.7 kg/m3 | –
35000 kPa | 1738.6 kg/m3 and 1738.7 kg/m3 | 1706.5 kg/m3 | –
35010 kPa | – | 1706.7 kg/m3 | –
40000 kPa | 1745.7 kg/m3 and 1745.8 kg/m3 and 1745.9 kg/m3 | 1714.6 kg/m3 and 1714.4 kg/m3 and 1714.5 kg/m3 | –
44990 kPa | 1752.7 kg/m3 | 1722.1 kg/m3 | –
45000 kPa | 1752.6 kg/m3 | 1721.9 kg/m3 and 1722.1 kg/m3 | –
49930 kPa | – | 1729.2 kg/m3 | –
49940 kPa | – | 1729.1 kg/m3 | –
49950 kPa | – | 1729 kg/m3 | –
49960 kPa | 1759.2 kg/m3 | – | –
49970 kPa | 1759.2 kg/m3 | – | –
50000 kPa | 1759.4 kg/m3 | – | –
